Experimental data taken from US20250332173A1, “COMPOUNDS AND METHODS FOR MODULATING NUCLEIC ACID SPLICING” (REMIX THERAPEUTICS INC., priority 2021, published 2025).
Like-named read-outs stand apart in the source and are kept apart here.

Legend:
Type in all cases: cell-based, human
MYB mRNA = assay: RT-qPCR splicing assay, MYB canonical junction (CJ) and alternative junction (AJ) mRNA; conditions: Homo sapiens; for AC50: increase in MYB alternative junction (AJ) mRNA, read-out: MYB AJ AC50
In short: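 Splicing switches were read by TaqMan RT-qPCR on lysates, quantifying exon-exon junctions of the canonical and alternative-exon isoforms. Lysates came from K562 (GAPDH/GUSB reference) or A673 (PPIA reference) cells exposed 24 h to compound in 11 threefold steps from 10 uM, with DMSO ≤0.25%.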

MYB = assay: HiBiT protein abundance assay, MYB HiBiT K562 cell line; conditions: HiBiT K562 cell line, 24 hours, top dose 10 μM; read-out: Effect on protein abundance, MYB (IC50 category)
In short: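 Tagged-protein abundance measured by split-NanoBiT luminescence after lysis, following 24 h compound exposure (37° C; 10 μM top, 3-fold, 10 points; DMSO ≤0.25%) of HiBiT knock-in K562 cells. Percent response vs DMSO and unmodified-cell controls; 4-parameter logistic interpolation at 50% gave IC50.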

Target C = assay: HiBiT protein abundance assay, Target C (Promega Nano-Glo HiBiT Lytic Detection System, knock-in K562 cell line); conditions: Homo sapiens, K562, 24 h, HiBiT K562 cell line, 24 hours, top dose 10 μM; read-out: Effect on protein abundance, Target C (IC50 category)
In short: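 Protein abundance was read by Nano-Glo HiBiT lytic luminescence after 24 h compound exposure (10-point, threefold series from 10 μM final) of HiBiT knock-in K562 cells. Parental K562 served as baseline; the 50%-abundance concentration was interpolated from a four-parameter logistic fit.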

[1] = Table 5 panel, canonical junction qPCR, compound concentration having 50% response in CJ decrease, read-out: MYB IC50 (decrease in CJ mRNA levels)
[2] = decrease in MYB canonical junction (CJ) mRNA, RT-qPCR, read-out: MYB CJ IC50
[3] = canonical junction qPCR panel, Table 5, read-out: MYB (decrease in CJ mRNA levels, IC50)

| SMILES | IC50 (MYB mRNA; [1]) [nM] | IC50 (MYB mRNA; [2]) [nM] | IC50 (MYB) [nM] | IC50 (Target C) [nM] | IC50 (MYB mRNA; [3]) [nM] | AC50 (MYB mRNA; RT-qPCR) [nM] |
| --- | --- | --- | --- | --- | --- | --- |
| Cn1cc2cc(-c3ncc4c(=O)n(C5CCNCC5)ccc4n3)cc(F)c2n1 [Compound 1212, 2-(7-fluoro-2-methyl-2H-indazol-5-yl)-6-(piperidin-4-yl)pyrido[4,3-d]pyrimidin-5(6H)-one] | < 100 | 100 to 1000 | < 100 | 100 to 1000 | – | < 100 |
| COc1c(-c2cc3ccn(C4CCNCC4)c(=O)c3cn2)cc2cn(C)nc2c1F [Compound 1219] | 1000 to 10000 | 1000 to 10000 | 100 to 1000 | 1000 to 10000 | – | 1000 to 10000 |
| Cc1c(O)c(-c2ncc3c(=O)n(C4CCNC4)ccc3n2)cc2cn(C)nc12 (stereo not shown) [Compound 1222] | 100 to 1000 | 100 to 1000 | < 100 | > 10000 | – | 100 to 1000 |
| Cn1cc2cc(-c3ncc4c(=O)n(C5CCNC5)ccc4n3)c(O)c(F)c2n1 (stereo not shown) [Compound 1223] | 100 to 1000 | 100 to 1000 | 100 to 1000 | 1000 to 10000 | – | 100 to 1000 |
| Cc1cn2cc(-c3ncc4c(=O)n(C5CCNCC5)ccc4n3)c(O)c(C)c2n1 [Compound 1225] | 100 to 1000 | 100 to 1000 | 100 to 1000 | 100 to 1000 | – | 100 to 1000 |
| Cc1cn2cc(-c3ncc4c(=O)n(C5CCNC5)ccc4n3)c(O)c(C)c2n1 (stereo not shown) [Compound 1227] | 1000 to 10000 | 1000 to 10000 | 1000 to 10000 | > 10000 | – | 1000 to 10000 |
| Cn1cc2cc(-c3ccc4c(=O)n(C5CCNCC5)ccc4n3)cc(F)c2n1 [Compound 1231] | – | 100 to 1000 | 100 to 1000 | 100 to 1000 | 100 to 1000 | 100 to 1000 |
| Cc1cn2cc(-c3ccc4c(=O)n(C5CCNCC5)ccc4n3)c(O)cc2n1 [Compound 1240] | – | 1000 to 10000 | > 10000 | > 10000 | 1000 to 10000 | 1000 to 10000 |
| Cn1cc2cc(-c3ccc4c(=O)n(C5CCNC6(CC6)C5)ccc4n3)c(O)cc2n1 (stereo not shown) [Compound 1242] | – | < 100 | < 100 | < 100 | < 100 | < 100 |
| COc1c(-c2ccc3c(=O)n(C4CCNCC4)ccc3n2)cc2cn(C)nc2c1C [Compound 1243] | – | > 10000 | > 10000 | > 10000 | > 10000 | > 10000 |
| Cn1cc2cc(-c3ccc4c(=O)n([C@@H]5CCNC6(CC6)C5)ccc4n3)c(O)cc2n1 [Compound 1246] | – | < 100 | 100 to 1000 | 100 to 1000 | < 100 | < 100 |
| Cc1c(O)c(-c2ccc3c(=O)n(C4CCNCC4)cc(C)c3n2)cc2cn(C)nc12 [Compound 1284] | – | < 100 | < 100 | 100 to 1000 | < 100 | < 100 |
| Cc1cn(C2CCNCC2)c(=O)c2ccc(-c3cc4cn(C)nc4c(F)c3O)nc12 [Compound 1285] | – | < 100 | < 100 | < 100 | < 100 | < 100 |
| Cn1cc2nc(-c3ccc4c(=O)n(C5CCNCC5)ccc4n3)c(O)cc2n1 [Compound 1296] | – | < 100 | < 100 | 100 to 1000 | < 100 | < 100 |
| Cc1c(O)c(-c2ncc3c(=O)n(C4CCC(N)CC4)ccc3n2)cc2cn(C)nc12 (stereo not shown) [Compound 1300, 6-((1s,4s)-4-aminocyclohexyl)-2-(6-hydroxy-2,7-dimethyl-2H-indazol-5-yl)pyrido[4,3-d]pyrimidin-5(6H)-one] | – | 100 to 1000 | 100 to 1000 | 1000 to 10000 | 100 to 1000 | 100 to 1000 |
| Cc1cn2cc(-c3ncc4c(=O)n(C5CCNCC5)ccc4n3)cc(C#N)c2n1 [Compound 1301] | – | 100 to 1000 | 100 to 1000 | 100 to 1000 | 100 to 1000 | 100 to 1000 |
| Cc1c(O)c(-c2ncc3c(=O)n(N4CCNCC4)ccc3n2)cc2cn(C)nc12 [Compound 1303] | – | < 100 | 100 to 1000 | 100 to 1000 | 100 to 1000 | 100 to 1000 |
| Cc1c(O)c(-c2ncc3c(=O)n(C4CCN(C)CC4)ccc3n2)cc2cn(C)nc12 [Compound 1304] | – | 100 to 1000 | 100 to 1000 | 1000 to 10000 | 100 to 1000 | 100 to 1000 |
| Cc1c(O)c(-c2ncc3c(=O)n(C4CNC4)ccc3n2)cc2cn(C)nc12 [Compound 1305, 6-(azetidin-3-yl)-2-(6-hydroxy-2,7-dimethyl-indazol-5-yl)pyrido[4,3-d]pyrimidin-5-one] | – | 1000 to 10000 | 100 to 1000 | > 10000 | 1000 to 10000 | 1000 to 10000 |
| Cc1c(O)c(-c2ncc3c(=O)n(C45CCC(N)(CC4)C5)ccc3n2)cc2cn(C)nc12 [Compound 1428] | – | 100 to 1000 | < 100 | 1000 to 10000 | 100 to 1000 | 100 to 1000 |

Further lines, with some results ahead:

| IC50 (MYB mRNA; [1]) [nM] | IC50 (MYB mRNA; [2]) [nM] | IC50 (MYB) [nM] | IC50 (Target C) [nM] | IC50 (MYB mRNA; [3]) [nM] | SMILES | AC50 (MYB mRNA; RT-qPCR) [nM] |
| --- | --- | --- | --- | --- | --- | --- |
| 1000 to 10000 | 1000 to 10000 | 1000 to 10000 | > 10000 | – | Cc1cn2cc(-c3cc4ccn(C5CCNC5)c(=O)c4cn3)cc(C#N)c2n1 (stereo not shown) [Compound 1214] | 1000 to 10000 |
| 100 to 1000 | 1000 to 10000 | 100 to 1000 | 1000 to 10000 | – | Cc1cn2cc(-c3ncc4c(=O)n(C5CCNC5)ccc4n3)cc(F)c2n1 (stereo not shown) [Compound 1215] | 100 to 1000 |
| 100 to 1000 | 100 to 1000 | 100 to 1000 | 100 to 1000 | – | Cc1cn2cc(-c3ncc4c(=O)n(C5CCNC5)ccc4n3)cc(C#N)c2n1 (stereo not shown) [Compound 1221] | 100 to 1000 |
| 100 to 1000 | 1000 to 10000 | 100 to 1000 | 1000 to 10000 | – | Cc1cn2cc(-c3ncc4c(=O)n([C@@H]5CCNC5)ccc4n3)cc(F)c2n1 [Compound 1228] | 100 to 1000 |
| – | 1000 to 10000 | > 10000 | > 10000 | > 10000 | Cc1cn2cc(-c3ccc4c(=O)n(C5CCNCC5)ccc4n3)nc(C)c2n1 [Compound 1238, 2-(2,8-dimethylimidazo[1,2-a]pyrazin-6-yl)-6-(piperidin-4-yl)-1,6-naphthyridin-5(6H)-one] | > 10000 |
| – | < 100 | < 100 | < 100 | < 100 | Cc1cn2cc(-c3ccc4c(=O)n(C5CCNCC5)ccc4n3)cc(C)c2n1 [Compound 1241, 2-(2,8-dimethylimidazo[1,2-a]pyridin-6-yl)-6-(piperidin-4-yl)-1,6-naphthyridin-5(6H)-one] | < 100 |
| – | 100 to 1000 | 100 to 1000 | 100 to 1000 | 100 to 1000 | Cc1cn2cc(-c3ccc4c(=O)n(C5CCNCC5)ccc4n3)cc(C#N)c2n1 [Compound 1297] | 100 to 1000 |
| – | 1000 to 10000 | 1000 to 10000 | > 10000 | 100 to 1000 | Cc1cn2cc(-c3ccc4c(=O)n(C5CCNC5)ccc4n3)cc(F)c2n1 (stereo not shown) [Compound 1299] | 100 to 1000 |
| – | > 10000 | > 10000 | > 10000 | > 10000 | Cc1cn2cc(-c3ccc4c(=O)n(C5CCNC5)ccc4n3)c(O)c(C)c2n1 (stereo not shown) [Compound 1302] | > 10000 |
